Experimental data reported in US10259807B2, “1-(piperazin-1-yl)-2-([1,2,4]triazol-1-yl)-ethanone derivatives” (Idorsia Pharmaceuticals Ltd., priority 2013, dated 2019).

Assays:
[1] = biological target: T1, hERG K channel (Homo sapiens, UniProt Q12809); assay: hERG Q-Patch assay; assay type: cell-based; conditions: CHO cells expressing hERG, K+ tail current 3 min after application, mean of two or three experiments
T1 construct: host or cells: CHO
Protocol: B) hERG Q-Patch assay: Compounds are evaluated for block of the hERG K channel using CHO cells stably expressing the hERG gene (accession number U04270, bSys, Witterswil. Switzerland) and the Patch robotic platform (Sophion, Ballerup, Denmark) in single-cell mode at room temperature. […] When the cells are ˜80% confluent (every 2-3 days), they are either split for further culture or used for electrophysiology. […] Cells are kept in suspension medium at 32-35° C. in the QPatch robot until use, at which time aliquots are transferred to the extracellular solution (in mM: NaCl 150; KCl 4; CaCl2 1.2; MgCl2 1; HEPES 10; pH 7.4 with NaOH) containing 0.3% v/v DMSO and applied to the test plates. K^+ currents are measured with the patch-voltage-clamp technique in the whole-cell configuration with the internal solution (in […]: KCl, 140; NaCl, 10; MgCl2, 1; HEPES, 10; EGTA, 5; pH=7.2 with KOH). […] K^+tail currents are produced from a holding voltage of −80 mV by a 500-ms depolarization to +20 mV followed by a 500-ms repolarization to −40 mV; tail current amplitudes are measured at the end of the repolarization to −40 mV. The pulse pattern is repeated every 10 sec during the experiment, baseline K^+ current is measured after 3 min in extracellular solution, test-solution containing compound is then applied, and K^+ current in presence of compound is measured 3 minutes after application to the cells.

[2] = biological target: T2, human CXCR3A (Homo sapiens, UniProt P49682); assay: FLIPR assay (CXCL10-induced calcium signal in CHO-K1 cells); assay type: cell-based; conditions: CHO-K1 cells expressing human CXCR3A coupled to Galpha(16); CXCL10 agonist 20 nM; mean values
T2 construct: expressed in transfected cells; host or cells: CHO-K1
T2 sequence (P49682 1-368): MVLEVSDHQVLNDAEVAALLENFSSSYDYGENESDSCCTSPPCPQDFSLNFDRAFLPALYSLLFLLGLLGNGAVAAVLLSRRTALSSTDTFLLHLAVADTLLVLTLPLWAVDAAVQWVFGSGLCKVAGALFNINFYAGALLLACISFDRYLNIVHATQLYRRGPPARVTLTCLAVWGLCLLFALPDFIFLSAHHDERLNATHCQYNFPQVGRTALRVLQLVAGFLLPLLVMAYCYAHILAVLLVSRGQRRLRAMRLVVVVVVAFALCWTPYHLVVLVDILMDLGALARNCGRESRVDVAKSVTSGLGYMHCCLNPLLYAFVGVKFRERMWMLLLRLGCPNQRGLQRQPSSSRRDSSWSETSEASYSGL
Protocol: A) FLIPR assay: The bioactivity of compounds is tested in a fluorometric imaging plate reader (FLIPR: Molecular Devices) using engineered CHO-K1 cells expressing the human CXCR3A (GenBank: AY242128) coupled to a G protein (Galpha(16)). Cells are plated the day prior to bioassay in F12 medium supplemented with 10% FBS and G418 and hygromycin antibiotics to maintain recombinant selection. […] Cells are washed free of excess dye and 60 microliter of wash buffer is added. Stock solutions of test compounds are made up at a concentration of 10 mM in DMSO, and serially diluted in dilution buffer to concentrations required for inhibition dose response curves. After a 10 minute incubation period at 37° C., 10 microliters of each compound dilution are transferred from a compound plate to the plate containing the recombinant cells in the FLIPR instrument according to the manufacturer's instructions. Following basal readings, 10 microliter CXCL10 agonist at a concentration of 20 nM (from Peprotech) is added, again using the FLIPR instrument. Changes in fluorescence are monitored before and after addition of the test compounds. Emission peak values above base level after CXCL10 addition are exported after base line subtraction. The program XLfit is used to fit the data to a single site dose response curve and to calculate IC50 values. The calculated IC50 values may fluctuate depending on the daily assay performance. Fluctuations of this kind are known to those skilled in the art.

T1 sequence (Q12809 whole entry): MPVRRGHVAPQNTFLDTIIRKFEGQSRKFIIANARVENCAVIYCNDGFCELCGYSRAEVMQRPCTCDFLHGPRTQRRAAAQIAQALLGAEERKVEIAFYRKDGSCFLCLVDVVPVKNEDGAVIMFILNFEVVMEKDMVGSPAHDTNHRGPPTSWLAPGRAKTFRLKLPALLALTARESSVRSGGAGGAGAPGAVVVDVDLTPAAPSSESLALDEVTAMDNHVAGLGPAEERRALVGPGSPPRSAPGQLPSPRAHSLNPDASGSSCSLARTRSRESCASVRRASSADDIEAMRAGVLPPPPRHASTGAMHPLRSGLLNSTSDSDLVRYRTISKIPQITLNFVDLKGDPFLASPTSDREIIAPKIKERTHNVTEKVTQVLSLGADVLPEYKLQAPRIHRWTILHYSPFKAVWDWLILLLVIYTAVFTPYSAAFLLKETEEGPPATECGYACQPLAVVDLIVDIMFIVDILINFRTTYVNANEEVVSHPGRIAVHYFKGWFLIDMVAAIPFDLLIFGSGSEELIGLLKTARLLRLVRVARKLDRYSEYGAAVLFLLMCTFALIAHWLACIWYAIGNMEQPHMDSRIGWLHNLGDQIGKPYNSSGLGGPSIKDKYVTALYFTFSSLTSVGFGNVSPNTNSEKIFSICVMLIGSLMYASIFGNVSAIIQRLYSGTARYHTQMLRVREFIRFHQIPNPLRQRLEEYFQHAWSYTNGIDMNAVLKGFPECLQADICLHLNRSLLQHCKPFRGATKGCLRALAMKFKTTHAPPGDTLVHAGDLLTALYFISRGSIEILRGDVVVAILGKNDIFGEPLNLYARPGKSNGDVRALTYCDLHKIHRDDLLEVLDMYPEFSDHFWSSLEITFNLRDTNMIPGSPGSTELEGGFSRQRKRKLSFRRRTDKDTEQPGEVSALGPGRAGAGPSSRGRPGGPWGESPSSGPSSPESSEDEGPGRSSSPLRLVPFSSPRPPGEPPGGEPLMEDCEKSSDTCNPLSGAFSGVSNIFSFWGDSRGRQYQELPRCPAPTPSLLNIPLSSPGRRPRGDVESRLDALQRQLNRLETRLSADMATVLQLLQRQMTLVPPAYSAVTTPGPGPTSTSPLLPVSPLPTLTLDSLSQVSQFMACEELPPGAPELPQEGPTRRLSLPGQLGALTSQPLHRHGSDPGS

SMILES | % block ([1]; concentration 300 nM) [%] | % block ([1]; concentration 3000 nM) [%] | IC50 [2] [nM]
CCOc1ncc(-c2nc(C(F)(F)F)sc2N2CCN(C(=O)Cn3nc(C)nc3CC)[C@H](C)C2)cn1 (single isomer, unassigned) [Example 19] | 4 | 12 | 8.5
CCc1nc(C)n(CC(=O)N2CCN(c3sc(C(F)(F)F)nc3-c3cnc(C(F)(F)F)nc3)C[C@H]2C)n1 (single isomer, unassigned) [Example 46] | 13 | 29 | 1.6
CCc1nc(C)nn1CC(=O)N1CCN(c2sc(C(F)(F)F)nc2-c2cnc(C(F)(F)F)nc2)C[C@H]1C (single isomer, unassigned) [Example 47] | 5 | 18 | 3.5
COc1ccc(-c2nc(C(F)(F)F)sc2N2CCN(C(=O)Cn3nc(C)nc3C)[C@H](C)C2)cc1 [Example 1, 2-(3,5-Dimethyl-[1,2,4]triazol-1-yl)-1-{(R)-4-[4-(4-methoxy-phenyl)-2-trifluoromethyl-thiazol-5-yl]-2-methyl-piperazin-1-yl}-ethanone] | 4 | 13 | 111
Cc1nc(C)n(CC(=O)N2CCN(c3sc(C(F)(F)F)nc3-c3ccc(OC(C)C)cc3)C[C@H]2C)n1 [Example 2, 2-(3,5-Dimethyl-[1,2,4]triazol-1-yl)-1-{(R)-4-[4-(4-isopropoxy-phenyl)-2-trifluoromethyl-thiazol-5-yl]-2-methyl-piperazin-1-yl}-ethanone] | 7 | 38 | 16
Cc1nc(C)n(CC(=O)N2CCN(c3sc(C(F)(F)F)nc3-c3ccc(OC(F)(F)F)cc3)C[C@H]2C)n1 [Example 3, 2-(3,5-Dimethyl-[1,2,4]triazol-1-yl)-1-{(R)-2-methyl-4-[4-(4-trifluoromethoxy-phenyl)-2-trifluoromethyl-thiazol-5-yl]-piperazin-1-yl}-ethanone] | 19 | 60 | 9.8
Cc1nc(C)n(CC(=O)N2CCN(c3sc(C(F)(F)F)nc3-c3ccc(OCC(F)(F)F)cc3)C[C@H]2C)n1 [Example 4, 2-(3,5-Dimethyl-[1,2,4]triazol-1-yl)-1-((R)-2-methyl-4-{4-[4-(2,2,2-trifluoro-ethoxy)-phenyl]-2-trifluoromethyl-thiazol-5-yl}-piperazin-1-yl)-ethanone] | 25 | 54 | 12
Cc1nc(C)n(CC(=O)N2CCN(c3sc(C(F)(F)F)nc3-c3ccc(C#N)cc3)C[C@H]2C)n1 [Example 5, 4-(5-{(R)-4-[2-(3,5-Dimethyl-[1,2,4]triazol-1-yl)-acetyl]-3-methyl-piperazin-1-yl}-2-trifluoromethyl-thiazol-4-yl)-benzonitrile] |  |  | 24
Cc1nc(C)n(CC(=O)N2CCN(c3sc(C(F)(F)F)nc3-c3ccc(F)cc3)C[C@H]2C)n1 [Example 6, 2-(3,5-Dimethyl-[1,2,4]triazol-1-yl)-1-{(R)-4-[4-(4-fluoro-phenyl)-2-trifluoromethyl-thiazol-5-yl]-2-methyl-piperazin-1-yl}-ethanone] | 11 | 51 | 64
Cc1ccc(-c2nc(C(F)(F)F)sc2N2CCN(C(=O)Cn3nc(C)nc3C)[C@H](C)C2)cc1 [Example 8, 2-(3,5-Dimethyl-[1,2,4]triazol-1-yl)-1-[(R)-2-methyl-4-(4-p-tolyl-2-trifluoromethyl-thiazol-5-yl)-piperazin-1-yl]-ethanone] | 22 | 61 | 28
CCc1ccc(-c2nc(C(F)(F)F)sc2N2CCN(C(=O)Cn3nc(C)nc3C)[C@H](C)C2)cc1 [Example 9, 2-(3,5-Dimethyl-[1,2,4]triazol-1-yl)-1-{(R)-4-[4-(4-ethyl-phenyl)-2-trifluoromethyl-thiazol-5-yl]-2-methyl-piperazin-1-yl}-ethanone] | 12 | 44 | 36
COc1ccc(-c2nc(C(F)(F)F)sc2N2CCN(C(=O)Cn3nc(C)nc3C)[C@H](C)C2)cc1F [Example 10, 2-(3,5-Dimethyl-[1,2,4]triazol-1-yl)-1-{(R)-4-[4-(3-fluoro-4-methoxy-phenyl)-2-trifluoromethyl-thiazol-5-yl]-2-methyl-piperazin-1-yl}-ethanone] | 7 | 20 | 20
COc1ccc(-c2nc(C(F)(F)F)sc2N2CCN(C(=O)Cn3nc(C)nc3C)[C@H](C)C2)c(F)c1 [Example 11, 2-(3,5-Dimethyl-[1,2,4]triazol-1-yl)-1-{(R)-4-[4-(2-fluoro-4-methoxy-phenyl)-2-trifluoromethyl-thiazol-5-yl]-2-methyl-piperazin-1-yl}-ethanone] | 10 | 19 | 45
COc1ccc(-c2nc(C(F)(F)F)sc2N2CCN(C(=O)Cn3nc(C)nc3C)[C@H](C)C2)cc1C [Example 12, 2-(3,5-Dimethyl-[1,2,4]triazol-1-yl)-1-{(R)-4-[4-(4-methoxy-3-methyl-phenyl)-2-trifluoromethyl-thiazol-5-yl]-2-methyl-piperazin-1-yl}-ethanone] | 6 | 27 | 25
COc1ccc(-c2nc(C(F)(F)F)sc2N2CCN(C(=O)Cn3nc(C)nc3C)[C@H](C)C2)cn1 [Example 16, 2-(3,5-Dimethyl-[1,2,4]triazol-1-yl)-1-{(R)-4-[4-(6-methoxy-pyridin-3-yl)-2-trifluoromethyl-thiazol-5-yl]-2-methyl-piperazin-1-yl}-ethanone] | 4 | 14 | 
Cc1ncc(-c2nc(C(F)(F)F)sc2N2CCN(C(=O)Cn3nc(C)nc3C)[C@H](C)C2)cn1 [Example 23, 2-(3,5-Dimethyl-[1,2,4]triazol-1-yl)-1-{(R)-2-methyl-4-[4-(2-methyl-pyrimidin-5-yl)-2-trifluoromethyl-thiazol-5-yl]-piperazin-1-yl}-ethanone] | −1 | −2 | 
COc1ncc(-c2nc(C(F)(F)F)sc2N2CCN(C(=O)Cn3nc(C)nc3C)[C@H](C)C2)cn1 [Example 32, 2-(3,5-Dimethyl-[1,2,4]triazol-1-yl)-1-{(R)-4-[4-(2-methoxy-pyrimidin-5-yl)-2-trifluoromethyl-thiazol-5-yl]-2-methyl-piperazin-1-yl}-ethanone] | −6 | −5 | 
[2H]C([2H])(C(=O)N1CCN(c2sc(C(F)(F)F)nc2-c2cnc(OCC)nc2)C[C@H]1C)n1nc(C)nc1C [Example 41, 2-(3,5-Dimethyl-[1,2,4]triazol-1-yl)-1-{(R)-4-[4-(2-ethoxy-pyrimidin-5-yl)-2-trifluoromethyl-thiazol-5-yl]-2-methyl-piperazin-1-yl}-2,2-dideuterium-ethanone] |  |  | 5.6
CCc1ncc(-c2nc(C(F)(F)F)sc2N2CCN(C(=O)Cn3nc(C)nc3C)[C@H](C)C2)cn1 [Example 43, 2-(3,5-Dimethyl-[1,2,4]triazol-1-yl)-1-{(R)-4-[4-(2-ethyl-pyrimidin-5-yl)-2-trifluoromethyl-thiazol-5-yl]-2-methyl-piperazin-1-yl}-ethanone] | 4 | 8 | 
